The values that follow come from patent US6699849B1, “Cyclodextrin complexes of benzodiazepines” (Cyclops, ehf., priority 1998, dated 2004).

Converted amounts (≈) assume the structure as drawn. Read-outs that look alike come from different tables or passages of the source.

A short description of series [1]: Transdermal delivery of enalaprilat from 10% (w/v) HPβCD solutions, effect of heating with polymers. It counts as in vitro ADME. Particulars: for Flux Ratio (heated/un-heated): donor phase HPβCD, pH 5.0. The source says: It is possible to enhance the cyclodextrin (CD) complexation efficacy, or efficiency, of drugs (D), and other “guest” molecules, by either increasing the apparent stability constant (KC) of the drug-cyclodextrin complex (D-CD) or increasing the apparent intrinsic solubility (S0) of the drug. For example, KC can be increased by addition of water-soluble polymers to the aqueous complexation media and S0 can be increased by ionization of the drug molecule, as described previously. […] On the other hand, if the drug-cyclodextrin complexes are prepared under conditions which ensure enhanced complexation and if the complexation efficiency decreases upon administration, then enhanced drug availability will be observed. Thus, the present invention involves: i) enhancement of the complexation efficiency and ii) reduction of the complexation efficiency after administration. For example, it is possible to enhance the complexation efficiency of many ionizable drugs by preparing the complexes at a pH where the drug is ionized but obtain decreased efficiency upon administration due to pH changes and consequent decreased ionization. One example of such a drug is phenytoin (pKa 8.1). […] However, if the pH 8.0 solution was placed in an environment which would decrease the pH from 8 to 5 (e.g. topical application to the skin), then a supersaturated solution would be formed which would result in enhanced drug availability (e.g. it would result in enhanced transdermal drug delivery). Other means to enhance S0 include reversible derivation (e.g. prodrug formation) of the guest molecule and addition of certain low molecular weight acids. The value of KC can, for example, be increased by addition of certain low molecular weight acids, by addition of water-soluble polymers to the aqueous complexation media or by using mixed solvent systems such as aqueous 10% (v/v) acetic acid. […] The effect of the polymers on the transdermal delivery of enalaprilat can, at least partly, be explained by decreased complexation efficiency (i.e. decrease in KC) at the skin surface.

The nature of series [2]: Effect of pH and cyclodextrins on the fraction of the open form (diazepine ring-opening) of benzodiazepines. It counts as physicochemical. The method, then:
The cyclodextrin concentration was 10% (w/v) and the benzodiazepine concentration was 1×10^−4 M. The concentration of the closed form was determined immediately after dissolving the benzodiazepine in the aqueous cyclodextrin solution and again 24 hours later (i.e. after equilibration at 23° C.). Preliminary experiments had shown that equilibrium between the closed and the open form was attained within 3 hours at 23° C.

A short description of series [3]: Solubility of midazolam versus pH in buffer, 10% HPβCD and 10% HPβCD + 0.10% HPMC. It counts as physicochemical. As to conditions: 10% (w/v) HPβCD + 0.10% (w/v) HPMC, FIG. 3. On the procedure: Midazolam is a water-insoluble weak base (pKa 6.2) which forms a somewhat water-soluble cation in acidic solution. Solubility (S) of midazolam at several different pH levels was determined in: a) pure aqueous buffer solutions (i.e. without HPβCD and HPMC); b) aqueous buffer solutions containing 10% (w/v) 2-hydroxypropyl-β-cyclodextrin (HPβCD) of molar substitution (MS)=0.3; and c) aqueous solutions containing 10% (w/v) 2-hydroxypropyl-β-cyclodextrin (HPβCD) of molar substitution (MS)=0.3 and 0.10% (w/v) hydroxypropyl methylcellulose (HPMC) 4000. Excess amount of the drug was added to the aqueous solution and the suspension formed was heated in a sealed container in an autoclave (120-140° C. for 20-40 minutes). After equilibration at room temperature (22-23° C.) for seven days, the suspension was filtered through a 0.45 μm membrane filter, diluted with aqueous methanolic solution and the amount of dissolved midazolam determined by a high pressure liquid chromatographic method (HPLC). FIG. 3 illustrates the effect of pH (i.e. the ring-opening) on the solubility of midazolam (pKa 6.2) in pure aqueous buffer solutions (●), aqueous buffer solutions containing 10% (w/v) HPβCD (▪), and aqueous buffer solutions containing both 10% (w/v) HPβCD and 0.10% (w/v) HPMC (♦) at room temperature.

The nature of series [4]: Solubility of midazolam versus pH with cyclodextrins and 10% (v/v) acetic acid. It counts as physicochemical. On the procedure: Excess amount of the drug was added to the aqueous HPβCD solution and the suspension formed was heated in a sealed container in an autoclave (120-140° C. for 20-40 minutes). After equilibration at room temperature (22-23° C.) for seven days, the suspension was filtered through a 0.45 μm membrane filter, diluted with aqueous methanolic solution and the amount of dissolved midazolam determined by a high pressure liquid chromatographic method (HPLC). FIG. 4 illustrates the effects of cyclodextrins, pH and 10% (v/v) acetic acid on the solubility of midazolam in aqueous solutions: pure aqueous buffer solution (▴); aqueous 10% (v/v) acetate solution (●); 10% (w/v) HPβCD solution containing 0.10% (w/v) HPMC in aqueous 10% (v/v) acetic acid solution (▪); 10% (w/v) aqueous SBEβCD solution in aqueous 10% (v/v) acetate (♦).

The nature of series [5]: First-order rate constant of diazepine ring-closure (regeneration of the benzodiazepine). Type of series: physicochemical. Particulars: pH 7.5, 37° C. On the procedure: The effect of cyclodextrins and organic solvents on the rate of diazepine ring-closure of several selected benzodiazepines was investigated. Stock solutions containing 1.0×10^−3 M of the benzodiazepine in 0.10 M aqueous hydrochloric acid solution (pH approx. 1.1) were prepared and stored at 37.0° C. The benzodiazepines were in the ring-open form in these stock solutions. Aqueous 0.50 M tris buffer (pH 7.50) solution was prepared. The observed first-order rate constant for the closing (i.e. formation) of the benzodiazepine ring was determined in the following reaction media: a) pure aqueous tris buffer solution; b) aqueous tris buffer solution containing 10% (w/v) cyclodextrin; c) tris buffer solution containing 10% (w/v) cyclodextrin and 10% (v/v) ethanol (EtOH); d) tris buffer solution containing 10% (w/v) cyclodextrin and 50% (v/v) EtOH; e) tris buffer solution containing 10% (w/v) cyclodextrin and 10% (v/v) dimethylsulfoxide (DMSO); and f) tris buffer solution containing 10% (w/v) cyclodextrin and 50% (w/v) DMSO. The stock solution (30 μl) was added to 1.50 ml of the reaction media which had previously been equilibrated to 37.0° C. and the first-order rate constant for the appearance of the closed form determined from the appearance of the closed form as observed on HPLC. Tables 5, 6 and 7 show the effects of cyclodextrins, EtOH and DMSO on the observed first-order rate constant for the regeneration of alprazolam, triazolam and midazolam, respectively. In pure aqueous buffer solutions, addition of EtOH and DMSO decreases somewhat the rate of ring closure, at least in the case of alprazolam and midazolam. Addition of cyclodextrin or the organic solvents have insignificant effect on the pH under these conditions. The dielectric constant of the reaction medium will, however, decrease upon addition of the organic solvents. It is possible that this decrease in the dielectric constant will reduce the ability of the reaction media to stabilize the transition state which could explain the decrease in the observed rate constant. […] The cyclodextrins formed stable complexes with the ring-open form of the drug and, thus, the rate decreased upon addition of cyclodextrin. […] EtOH and DMSO will compete with the diazepine ring-open form for a space in the cyclodextrin cavity resulting in decreased complexation.

Series [6] is classed as physicochemical. The text has this: It is possible to enhance the cyclodextrin (CD) complexation efficacy, or efficiency, of drugs (D), and other “guest” molecules, by either increasing the apparent stability constant (KC) of the drug-cyclodextrin complex (D-CD) or increasing the apparent intrinsic solubility (S0) of the drug. For example, KC can be increased by addition of water-soluble polymers to the aqueous complexation media and S0 can be increased by ionization of the drug molecule, as described previously. […] On the other hand, if the drug-cyclodextrin complexes are prepared under conditions which ensure enhanced complexation and if the complexation efficiency decreases upon administration, then enhanced drug availability will be observed. Thus, the present invention involves: i) enhancement of the complexation efficiency and ii) reduction of the complexation efficiency after administration. For example, it is possible to enhance the complexation efficiency of many ionizable drugs by preparing the complexes at a pH where the drug is ionized but obtain decreased efficiency upon administration due to pH changes and consequent decreased ionization. One example of such a drug is phenytoin (pKa 8.1). […]

The conditions of series [7]: cited from earlier work; for solubility in water: room temperature (25° C.).
The conditions of series [8]: cited from earlier work.

In the case of `C[C@H](N[C@@H](CCc1ccccc1)C(=O)O)C(=O)N1CCC[C@H]1C(=O)O` [enalaprilat], the entries for the “Flux Ratio (heated/un-heated)” value in series [1] (0.10% HPMC) and in series [1] (0.25% PVP) were 2.6 and 1.4, respectively. Besides, the “effect of polymers on transdermal delivery” value was “did not enhance” in series [1] (polymers added to unheated vehicles) and “significant enhancement” in series [1] (vehicles heated after addition of the polymers).
Regarding `Cc1ncc2n1-c1ccc(Cl)cc1C(c1ccccc1F)=NC2` [midazolam, 8-chloro-6-(2-fluorophenyl)-1-methyl-4H-imidazo[1,5-a][1,4]benzodiazepine], the Fraction open in series [2] (10% (w/v) HPβCD, pH 2, approx. 23° C.) came out at 0.56; in series [2] (10% (w/v) HPβCD, pH 3, approx. 23° C.), 0.18; in series [2] (10% (w/v) HPβCD, pH 4, approx. 23° C.) it was 0.23; in series [2] (10% (w/v) SBEβCD, pH 2, approx. 23° C.), 0.81; in series [2] (10% (w/v) SBEβCD, pH 3, approx. 23° C.), 0.39; in series [2] (10% (w/v) SBEβCD, pH 4, approx. 23° C.) it was 0.11. Further, the Fraction open stood at 0.79 in series [2] (10% (w/v) αCD, pH 2, approx. 23° C.); 0.32 in series [2] (10% (w/v) αCD, pH 3, approx. 23° C.); 0.10 in series [2] (10% (w/v) αCD, pH 4, approx. 23° C.); 0.61 in series [2] (10% (w/v) γCD, pH 2, approx. 23° C.); 0.21 in series [2] (10% (w/v) γCD, pH 3, approx. 23° C.); 0.17 in series [2] (10% (w/v) γCD, pH 4, approx. 23° C.). Also, the Fraction open in series [2] (no cyclodextrin, pH 2, approx. 23° C.) was determined as 0.74; in series [2] (no cyclodextrin, pH 3, approx. 23° C.) it was 0.28; in series [2] (no cyclodextrin, pH 4, approx. 23° C.), 0.18. Moreover, the “effect of addition of HPMC on complexation efficiency” value in series [3] is “significantly improves”. The “effect of 10% (v/v) acetic acid co-solvent on fraction of the open ring form” value in series [4] is reported as “small decrease”. In addition, the “effect of addition of 10% (v/v) acetic acid on complexation” value in series [4] (cyclodextrin solutions, FIG. 4) is “significantly improves”. In addition, the “observed first-order rate constant, ring formation” value (“observed first-order rate constant” below) in series [5] (10% HPβCD, 10% DMSO) is 0.0336 min⁻¹; in series [5] (10% HPβCD, 10% EtOH), 0.0386 min⁻¹; in series [5] (10% HPβCD, 50% DMSO), 0.084 min⁻¹; in series [5] (10% HPβCD, 50% EtOH) it was 0.0653 min⁻¹; in series [5] (10% HPβCD, pure water), 0.0277 min⁻¹; in series [5] (10% RMβCD, 10% DMSO), 0.0494 min⁻¹. Further, the “observed first-order rate constant” value in series [5] (10% RMβCD, 10% EtOH) turned out to be 0.0424 min⁻¹; in series [5] (10% RMβCD, 50% DMSO), 0.0848 min⁻¹; in series [5] (10% RMβCD, 50% EtOH), 0.0699 min⁻¹; in series [5] (10% RMβCD, pure water), 0.0305 min⁻¹; in series [5] (10% SBEβCD, 10% DMSO), 0.0224 min⁻¹; in series [5] (10% SBEβCD, 10% EtOH), 0.033 min⁻¹. For the same compound, the “observed first-order rate constant” value in series [5] (10% SBEβCD, 50% DMSO) turned out to be 0.0855 min⁻¹; in series [5] (10% SBEβCD, 50% EtOH) it was 0.065 min⁻¹; in series [5] (10% SBEβCD, pure water) it was 0.013 min⁻¹; in series [5] (No CD, 10% DMSO), 0.138 min⁻¹; in series [5] (No CD, 10% EtOH), 0.126 min⁻¹; in series [5] (No CD, 50% DMSO), 0.109 min⁻¹. The “observed first-order rate constant” value was determined as 0.0841 min⁻¹ in series [5] (No CD, 50% EtOH) and 0.179 min⁻¹ in series [5] (No CD, pure water).
Consider `O=C1NC(=O)C(c2ccccc2)(c2ccccc2)N1` [phenytoin, 5,5-diphenyl-2,4-imidazolidinedione], for which the “solubility enhancement by 25% (w/v) 2-hydroxypropyl-β-cyclodextrin” value in series [6] (pH 5) is 280 fold; in series [6] (pH 8), 200 fold. Moreover, the “solubility with 25% (w/v) 2-hydroxypropyl-β-cyclodextrin” value in series [7] (pH 5) is 5000 µg/mL; in series [7] (pH 8), 6400 µg/mL. The results for the solubility in water in series [7] (pH 5) and in series [7] (pH 8) were 18 µg/mL (≈ 71.4 µM) and 32 µg/mL (≈ 127 µM), respectively. The pKa in series [8] was 8.1.
